The test system of one assay is hippocampal neurons. Briefly: Hippocampal neuron survival assay against NMDA excitotoxicity (LDH). It is filed as cell-based, Sprague-Dawley rats. The note with it: 30 μM 24 hrs, NMDA 10-200 μM 20 min. The protocol:
Hippocampal neurons/cortical neurons were prepared from embryonic day 18 Sprague-Dawley rats. After the cortices had been removed from the brain, isolated cells were plated onto Poly d-Lysine (PDL) (P0899, Sigma)-coated 48 well plates (150687, NUNC) at a density of 2×10^5 cell per well using Neurobasal Medium (NB) (21103-049, Gibco) with B27 supplement (17504-044, Gibco), penicillin/streptomycin (15140, Gibco) and 1 mM L-glutamine (25030, Gibco). The cell culture was incubated at 37° C. in a humidified atmosphere of 5% CO2 in air. Medium was changed to growth medium (Neurobasal Medium with penicillin/streptomycin and B27 supplement) after 3 hours. Half medium was changed with growth medium every 2-3 days to maintain the cells until day 10 in vitro (DIV 10). Serial dilutions of samples were prepared in growth medium and DMSO was used as vehicle control. For pre-treating assay, half of the medium was removed from wells, and equal amount of diluted samples were replaced. Cells were then incubated for 2 hours at 37° C. in a humidified atmosphere of 5% CO2 in air. […] Afterwards, cells were incubated in growth medium for 18-24 hours and detected with Cytotoxicity Detection Kit (1644793, Roche).
Hippocampal neurons were treated with DA021 and subsequently subjected to varying concentrations of NMDA. […] LDH release into the medium was then measured.

For assay [1], the system named is NGF, BDNF, NT-3 and NT-4 expression in cortical neurons. Briefly: Neurotrophin gene expression (real-time PCR) in cortical neurons following NMDA treatment. It is filed as cell-based. The note with it: 24 hrs pre-treatment, then NMDA 20 μM 20 min; vs DMSO+NMDA. How it is done:
Cortical neurons were incubated with DA001 or the DMSO control for 24 hrs, followed by treatment with NMDA (20 μM) or water for 20 min. Gene expression was normalized against the house-keeping gene, hypoxanthine phosphoribosyltransferase 1 (HPRT1) and glyceraldehyde 3-phosphate dehydrogenase (GAPDH) and compared to the control (DMSO) with NMDA treatment. Relative changes in gene expression induced by DA001+NMDA was compared with DMSO+NMDA.
Cortical neurons of 11 DIV-12 DIV were pre-incubated with DA001 or DMSO for 24 hours. Cells were washed in Locke's medium without magnesium for 15 min, followed by the treatment of NMDA (20 μM) or water for 20 min. Neurons were incubated with normal growth medium and total RNA were extracted at different time intervals after or without NMDA treatment. Total RNA was extracted using RNeasy Mini kit (Qiagen) according to the manufacturer's protocol, and was reverse-transcribed into single-stranded cDNA with SuperScript II Reverse Transcriptase (Invitrogen) and oligo-dT primers. Real-time Quantitative PCR was performed using Power SYBR Green PCR Master Mix (Applied Biosystems) on the Mx3000P Real-Time PCR System (Stratagene). Thermal cycling was initiated with a 10-min denaturation step at 95° C., followed by 40 cycles of 95° C. for 30 sec, 60° C. for 1 min and 72° C. for 30 sec. The final product was subjected to a Meltcurve detection at the end of the reaction. Regulation of the gene expression was normalized against home gene, hypoxanthine phosphoribosyltransferase 1 (HPRT1) and glyceraldehyde 3-phosphate dehydrogenase (GAPDH). Real-time PCR primers are as follows.
Cortical neurons were pre-treated with DA001 after which the cells were subjected to NMDA insult. The expression of neurotrophins was measured at three different time intervals. DA001 induced NGF, BDNF and NT-3 expression but not NT-4 under the same conditions. FIG. 3 illustrates that cortical neurons were incubated with DA001 or the DMSO control for 24 hrs, followed by treatment with NMDA (20 μM) or water for 20 min. […]
For orientation: Quantitative PCR measures a nucleic acid by following its amplification.

Molecules are shown by their SMILES.

In the case of `C=C(C)[C@@H]1CC[C@]2(/C=N/O)CC[C@]3(C)C(CCC4[C@@]5(C)CCC(=O)[C@@](C)(CO)[C@@H]5CC[C@]43C)C12` (stereo partly shown) [DA021], the “protection from NMDA-induced excitotoxicity (LDH release)” value in the assay on hippocampal neurons is listed as “protects neurons against differing concentrations of NDMA”.

Consider `C=C(C)[C@@H]1CC[C@]2(C(=O)O)CC[C@]3(C)C(CC[C@@H]4[C@@]5(C)CC[C@H](O[C@@H]6OC[C@H](O)[C@H](O)[C@H]6O[C@@H]6O[C@@H](C)[C@H](O)[C@@H](O)[C@H]6O)[C@@](C)(CO)[C@@H]5CC[C@]43C)[C@@H]12` (stereo partly drawn) [DA001, 3-O-[α-L-rhamnopyranosyl-(1→2)-α-L-arabinopyranosyl]-3,23-dihydroxy-20(29)-lupen-28-oic acid], for which, in assay [1], the BDNF expression result is “induced”, the NGF expression entry was “induced” and the NT-3 expression entry is reported as “induced”.

The values above are taken from patent publication US9029414B2, “Triterpenoid compounds and methods of use thereof” (Biotechnology Research Corporation, priority 2008, dated 2015).
